Drawing on PubChem BioAssay AID1671332, this text covers IC50 for one compound.

One may read the IC50 as the concentration needed to halve the response being measured.

The target of the assay is Serine/threonine-protein kinase Nek7 (Homo sapiens) (UniProt Q8TDX7). Put plainly: inhibition of NEK7 serine/threonine kinase activity – biochemical, Z'-LYTE FRET, direct format, recombinant human, dose response (AID 1671332).
Serine/threonine-protein kinase Nek7 (Homo sapiens), sequence (Q8TDX7 whole entry, looked up): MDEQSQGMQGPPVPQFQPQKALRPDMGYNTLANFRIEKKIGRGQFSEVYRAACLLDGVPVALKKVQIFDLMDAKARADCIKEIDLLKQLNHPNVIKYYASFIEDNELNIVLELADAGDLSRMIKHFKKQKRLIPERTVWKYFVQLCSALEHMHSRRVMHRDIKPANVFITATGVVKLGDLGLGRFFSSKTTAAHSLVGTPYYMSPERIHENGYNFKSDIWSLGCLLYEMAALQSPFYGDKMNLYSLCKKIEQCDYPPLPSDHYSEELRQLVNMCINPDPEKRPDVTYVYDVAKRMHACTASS

`CN1C(=O)C2(Cc3cn(C45CC67SSC(CO)(C(=O)N6C4Nc4ccccc45)N(C)C7=O)c4ccccc34)SSC1(CO)C(=O)N2C` (stereo unspecified): the IC50 is 0.274 µM.
